# Measurements as given in PubChem BioAssay AID1845213 (Molecular Pharmacology Branch, DTP, NCI, 2023).
# Tested on: NCI-H841 complex tumor spheroid viability
# Experiment: Anticancer human tumor NCI-H841 cell line growth inhibition;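 note: spheroids exposed to compounds for 7 days before readout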;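 for viability, T/C: 100% = DMSO vehicle control wells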
# Conditions: for IC50: curve of first compound; for viability, T/C: stronger effect = lower value
# Summary of the method: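 Complex tumor spheroids combined malignant cells with endothelial cells and mesenchymal stem cells. DNA-damaging drugs and DNA repair inhibitors were tested alone and in combination, at half-log dilutions down from clinical Cmax (top 10 microM if Cmax unknown), 0.25% DMSO final.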
# [1] = second compound 30 pM, first compound 0.00949 µM
# [2] = second compound 30 pM, first compound 0.03 µM
# [3] = second compound 30 pM, first compound 0.0949 µM
# [4] = second compound 30 pM, first compound 0.3 µM
# [5] = second compound 30 pM, first compound 0.949 µM
# [6] = second compound 30 pM, first compound 3 µM
# [7] = second compound 94.9 pM, first compound 0.00949 µM
# [8] = second compound 94.9 pM, first compound 0.03 µM
# [9] = second compound 94.9 pM, first compound 0.0949 µM
# [10] = second compound 94.9 pM, first compound 0.3 µM
# [11] = second compound 94.9 pM, first compound 0.949 µM
# [12] = second compound 94.9 pM, first compound 3 µM
# [13] = second compound 0.0003 µM, first compound 0.00949 µM
# [14] = second compound 0.0003 µM, first compound 0.03 µM
# [15] = second compound 0.0003 µM, first compound 0.0949 µM
# [16] = second compound 0.0003 µM, first compound 0.3 µM
# [17] = second compound 0.0003 µM, first compound 0.949 µM
# [18] = second compound 0.0003 µM, first compound 3 µM
# [19] = second compound 0.000949 µM, first compound 0.00949 µM
# [20] = second compound 0.000949 µM, first compound 0.03 µM
# [21] = second compound 0.000949 µM, first compound 0.0949 µM
# [22] = second compound 0.000949 µM, first compound 0.3 µM
# [23] = second compound 0.000949 µM, first compound 0.949 µM
# [24] = second compound 0.000949 µM, first compound 3 µM
# [25] = second compound 0.003 µM, first compound 0.00949 µM
# [26] = second compound 0.003 µM, first compound 0.03 µM
# [27] = second compound 0.003 µM, first compound 0.0949 µM
# [28] = second compound 0.003 µM, first compound 0.3 µM
# [29] = second compound 0.003 µM, first compound 0.949 µM
# [30] = second compound 0.003 µM, first compound 3 µM
compound,measurement,setting,value
CNCc1ccc(-c2cc(-c3nc(-c4ccc(S(=O)(=O)C(C)C)cc4)cnc3N)on2)cc1 + COc1cc2c(cc1O)CCNC21CSC2c3c(OC(C)=O)c(C)c4c(c3C(COC1=O)N1C(O)C3Cc5cc(C)c(OC)c(O)c5C(C21)N3C)OCO4,IC50,second compound 30 pM,205 nM
same,IC50,second compound 94.9 pM,136 nM
same,IC50,second compound 0.0003 µM,< 9.49 nM
same,IC50,second compound 0.000949 µM,< 9.49 nM
same,IC50,second compound 0.003 µM,< 9.49 nM
same,"viability, T/C",[1],97.6%
same,"viability, T/C",[2],99.6%
same,"viability, T/C",[3],86.8%
same,"viability, T/C",[4],31.6%
same,"viability, T/C",[5],7.14%
same,"viability, T/C",[6],1.78%
same,"viability, T/C",[7],93.8%
same,"viability, T/C",[8],92.6%
same,"viability, T/C",[9],66.2%
same,"viability, T/C",[10],13.6%
same,"viability, T/C",[11],2.49%
same,"viability, T/C",[12],1.05%
same,"viability, T/C",[13],44.8%
same,"viability, T/C",[14],28.3%
same,"viability, T/C",[15],7.38%
same,"viability, T/C",[16],1.78%
same,"viability, T/C",[17],1.69%
same,"viability, T/C",[18],0.41%
same,"viability, T/C",[19],2.86%
same,"viability, T/C",[20],2.26%
same,"viability, T/C",[21],1.25%
same,"viability, T/C",[22],0.59%
same,"viability, T/C",[23],0.5%
same,"viability, T/C",[24],0.09%
same,"viability, T/C",[25],0.1%
same,"viability, T/C",[26],0.1%
same,"viability, T/C",[27],0.09%
same,"viability, T/C",[28],0.1%
same,"viability, T/C",[29],0.09%
same,"viability, T/C",[30],0.15%
Cc1sc2c(c1C)C(c1ccc(Cl)cc1)=NC(CC(=O)Nc1ccc(O)cc1)c1nnc(C)n1-2 (stereo not given) + COc1cc2c(cc1O)CCNC21CSC2c3c(OC(C)=O)c(C)c4c(c3C(COC1=O)N1C(O)C3Cc5cc(C)c(OC)c(O)c5C(C21)N3C)OCO4,IC50,second compound 30 pM,515 nM
same,IC50,second compound 94.9 pM,291 nM
same,IC50,second compound 0.0003 µM,< 9.49 nM
same,IC50,second compound 0.000949 µM,< 9.49 nM
same,IC50,second compound 0.003 µM,< 9.49 nM
same,"viability, T/C",[1],101%
same,"viability, T/C",[2],99.2%
same,"viability, T/C",[3],93.3%
same,"viability, T/C",[4],69.2%
same,"viability, T/C",[5],28.3%
same,"viability, T/C",[6],5.97%
same,"viability, T/C",[7],99.5%
same,"viability, T/C",[8],91.6%
same,"viability, T/C",[9],74.9%
same,"viability, T/C",[10],53.9%
same,"viability, T/C",[11],14.4%
same,"viability, T/C",[12],2.65%
same,"viability, T/C",[13],37.6%
same,"viability, T/C",[14],20.6%
same,"viability, T/C",[15],15.6%
same,"viability, T/C",[16],5.26%
same,"viability, T/C",[17],2.59%
same,"viability, T/C",[18],1.68%
same,"viability, T/C",[19],2.84%
same,"viability, T/C",[20],2.9%
same,"viability, T/C",[21],2.06%
same,"viability, T/C",[22],0.99%
same,"viability, T/C",[23],0.03%
same,"viability, T/C",[24],0.1%
same,"viability, T/C",[25],0.12%
same,"viability, T/C",[26],0.12%
same,"viability, T/C",[27],0.12%
same,"viability, T/C",[28],0.1%
same,"viability, T/C",[29],0.12%
same,"viability, T/C",[30],0.2%
Cn1ncnc1[C@H]1c2n[nH]c(=O)c3cc(F)cc(c23)N[C@@H]1c1ccc(F)cc1 + COc1cc2c(cc1O)CCNC21CSC2c3c(OC(C)=O)c(C)c4c(c3C(COC1=O)N1C(O)C3Cc5cc(C)c(OC)c(O)c5C(C21)N3C)OCO4,IC50,second compound 30 pM,514 nM
same,IC50,second compound 94.9 pM,252 nM
same,IC50,second compound 0.0003 µM,< 9.49 nM
same,IC50,second compound 0.000949 µM,< 9.49 nM
same,IC50,second compound 0.003 µM,< 9.49 nM
same,"viability, T/C",[1],94%
same,"viability, T/C",[2],91.6%
same,"viability, T/C",[3],86.4%
same,"viability, T/C",[4],71.3%
same,"viability, T/C",[5],26.4%
same,"viability, T/C",[6],1.05%
same,"viability, T/C",[7],85.6%
same,"viability, T/C",[8],76.5%
same,"viability, T/C",[9],66.1%
same,"viability, T/C",[10],51.5%
same,"viability, T/C",[11],11%
same,"viability, T/C",[12],1.19%
same,"viability, T/C",[13],16.7%
same,"viability, T/C",[14],9.8%
same,"viability, T/C",[15],7.64%
same,"viability, T/C",[16],2.97%
same,"viability, T/C",[17],1.63%
same,"viability, T/C",[18],1.27%
same,"viability, T/C",[19],3.02%
same,"viability, T/C",[20],3.35%
same,"viability, T/C",[21],2.75%
same,"viability, T/C",[22],2.82%
same,"viability, T/C",[23],2.18%
same,"viability, T/C",[24],0.23%
same,"viability, T/C",[25],0.11%
same,"viability, T/C",[26],0.12%
same,"viability, T/C",[27],0.12%
same,"viability, T/C",[28],0.1%
same,"viability, T/C",[29],0.1%
same,"viability, T/C",[30],0.19%
O=C(c1cc(Cc2n[nH]c(=O)c3ccccc23)ccc1F)N1CCN(C(=O)C2CC2)CC1 + COc1cc2c(cc1O)CCNC21CSC2c3c(OC(C)=O)c(C)c4c(c3C(COC1=O)N1C(O)C3Cc5cc(C)c(OC)c(O)c5C(C21)N3C)OCO4,IC50,second compound 30 pM,4580 nM
same,IC50,second compound 94.9 pM,3050 nM
same,IC50,second compound 0.0003 µM,< 94.9 nM
same,IC50,second compound 0.000949 µM,< 94.9 nM
same,IC50,second compound 0.003 µM,< 94.9 nM
same,"viability, T/C",[3],107%
same,"viability, T/C",[4],105%
same,"viability, T/C",[5],101%
same,"viability, T/C",[6],77%
same,"viability, T/C","second compound 30 pM, first compound 9.49 µM",3.12%
same,"viability, T/C","second compound 30 pM, first compound 30 µM",1.74%
same,"viability, T/C",[9],97.5%
same,"viability, T/C",[10],97.8%
same,"viability, T/C",[11],87.4%
same,"viability, T/C",[12],52.1%
same,"viability, T/C","second compound 94.9 pM, first compound 9.49 µM",1.93%
same,"viability, T/C","second compound 94.9 pM, first compound 30 µM",1.27%
same,"viability, T/C",[15],27.4%
same,"viability, T/C",[16],22.1%
same,"viability, T/C",[17],18.2%
same,"viability, T/C",[18],2.51%
same,"viability, T/C","second compound 0.0003 µM, first compound 9.49 µM",1.17%
same,"viability, T/C","second compound 0.0003 µM, first compound 30 µM",0.76%
same,"viability, T/C",[21],3.77%
same,"viability, T/C",[22],4.04%
same,"viability, T/C",[23],2.93%
same,"viability, T/C",[24],0.82%
same,"viability, T/C","second compound 0.000949 µM, first compound 9.49 µM",0.32%
same,"viability, T/C","second compound 0.000949 µM, first compound 30 µM",0.11%
same,"viability, T/C",[27],7.31%
same,"viability, T/C",[28],0.2%
same,"viability, T/C",[29],0.13%
same,"viability, T/C",[30],0.12%
same,"viability, T/C","second compound 0.003 µM, first compound 9.49 µM",0.14%
same,"viability, T/C","second compound 0.003 µM, first compound 30 µM",0.29%
